Experimental data: PMC10394814, “Discovery and evaluation of active compounds from Xuanfei Baidu formula against COVID-19 via SARS-CoV-2 M^pro” (Chinese Medicine, 2023)
Like-named read-outs stand apart in the source and are kept apart here.

Columns and labels:
[1] = target: T1, SARS-CoV-2 M^pro (Severe acute respiratory syndrome coronavirus 2, UniProt P0DTD1); assay: SPR binding affinity to M^pro (Biacore T200, CM5 chip); details: for kon / koff: kinetic mode; for kon: read-out: Ka (association rate constant); for koff: read-out: Kd (dissociation rate constant)
Experimental: SPR assay. Biacore T200 system was used for SPR assay. M^pro was conjugated to a sensor Chip (CM5) via amino coupling reaction. The tested compounds were diluted with the running buffer (1.05 × PBS-P, 5% DMSO) to reach the working concentration of 0.977–500 µM, being injected into the channels at a flow rate of 30 µL/min. The coupling time and the dissociation time were respectively set at 60 s and 120 s or 180 s. The data were analyzed for fitting the equilibrium dissociation constant (KD).

[2] = target: T1, SARS-CoV-2 M^pro; assay: FRET screening of SARS-CoV-2 M^pro inhibitors; type: biochemical; details: for inhibition at 40 µM: read-out: inhibition rate; for IC50: n = 5
Experimental: FRET screening was carried out for identifying the inhibitors of SARS-CoV-2 M^pro. […] The screening system was established by employing M^pro (200 nM), substrate (20 µM), and the tested compounds with the different concentrations from 0.039 to 160 µM. The excitation and emission wavelength were set at 320 and 405 nm, separately. The data was analyzed with Graphpad prism 9.0 and all experiments were performed in triplicates.

[3] = in vitro; type: cell-based; details: African green monkey
Experimental: Vero E6 (ATCC, CRL-1586) cells (1 × 10^4 cells/well) were maintained in a 96-well plate for 12 h. All cells were cultured in complete medium composed of Dulbecco’s Modified Eagle Medium (DMEM) (Gibco, USA), 10% (v/v) serum, 100 U/mL penicillin, and 100 µg/mL streptomycin. The diluted solutions of the tested compounds (200 µL) at the concentrations of 100, 80, 60, 40, 20, 10, and 5 µM were added to wells and incubated for another 24 or 48 h, respectively. At the terminus period of incubation, 50 µL MTT (2.5 mg/mL) was added to each well and continuously incubated at 37 ℃ for 4 h. After disposal of the liquid supernatant, 150 µL DMSO was added to each well, whose absorbance was detected at 490 nm via Microplate Reader (TECAN SunriseTM, China). Cytotoxicity was calculated as follows: Cell viability (%) = (ODexperiment-ODBlank)/(ODcontrol-ODBlank) × 100%. The data were analyzed with GraphPad Prism 9.0. All experiments were performed in triplicates.

[4] = target: T1, SARS-CoV-2 M^pro; assay: ITC measurement of binding to M^pro; details: ITC at 298 K
[5] = tested on: mice; details: cited from earlier work
[6] = kinetic mode (physcion: affinity mode)

| Structure (SMILES) | Kd [1, 6] | kon [1] | koff [1] | inhibition at 40 µM [2] | IC50 ([2]; with 0.01% Triton X-100) | IC50 ([2]; without Triton X-100) | Kd [1] | CC50 [3] | N (binding stoichiometry) [4] | ΔS (entropy variation) [4] | safe dose [5] |
| --- | --- | --- | --- | --- | --- | --- | --- | --- | --- | --- | --- |
| COc1c(/C=C/C(=O)c2ccc(O)c(CC=C(C)C)c2)ccc(O)c1O [Licochalcone D] | 4.87 µM | 2810 M⁻¹ s⁻¹ | 0.0137 s⁻¹ | > 90% | 29.5 µM | 5.54 µM |  |  |  |  |  |
| COc1cc(O)c2c(c1)C(=O)c1cc(C)cc(O)c1C2=O [Physcion] |  |  |  | > 90% | 31.6 ± 25.6 µM | 22.1 ± 3.01 µM | 167 µM |  |  |  |  |
| CCCCC/C=C\C/C=C\CCCCCCCC(=O)O [Linoleic acid, Linoleic Acid] |  |  |  | > 90% | 43 ± 1.93 µM |  | 10.8 µM |  |  |  |  |
| COc1c(/C=C/C(=O)c2ccc(O)cc2)ccc(O)c1O [Licochalcone B] | 5.64 µM | 2210 M⁻¹ s⁻¹ | 0.0125 s⁻¹ | > 90% | 5.12 ± 1.53 µM | 4.24 ± 1.03 µM |  |  |  |  |  |
| C[C@@H]1O[C@@H](O[C@@H]2[C@@H](O)[C@H](OCCc3ccc(O)c(O)c3)O[C@H](CO)[C@H]2OC(=O)/C=C/c2ccc(O)c(O)c2)[C@H](O)[C@H](O)[C@H]1O [Acteoside] | 4.67 µM | 847 M⁻¹ s⁻¹ | 0.00396 s⁻¹ | > 90% | 1.93 ± 0.76 µM | 2.53 ± 1.02 µM |  | > 100 µM | 0.48 | 27.3 cal/mol/deg | up to 800 mg/kg |
